Assay results published in paper PMC4498228, “Biotransformation of Endocrine-Disrupting Compounds in Groundwater: Bisphenol A, Nonylphenol, Ethynylestradiol and Triclosan by a Laccase Cocktail from Pycnoporus sanguineus CS43” (Water, Air, and Soil Pollution, 2015).
Where two headings read alike, the source gives them in different places.

Test system: T1, laccase cocktail (LacI/LacII) from Pycnoporus sanguineus CS43
T1 construct: gene Lac I; native secreted enzymes
Assay: transformation rates at varied EDC concentration, Michaelis-Menten fit (HPLC-UV)
Assay type: biochemical, Trametes sanguinea
Conditions: free laccase cocktail (two isoforms), 100 U/L, pH 5 McIlvaine buffer, 25 °C, no mediator, read-out: Catalytic parameters / K m /
Description: transformation rates at varied EDC concentration, Michaelis-Menten fit (HPLC-UV) on laccase cocktail (LacI/LacII) from Pycnoporus sanguineus CS43

SMILES	Km (apparent Km) [µM]	Km (called Kapp in the text) [µM]
CCCCCCCCCc1ccc(O)cc1 [NP, 4-nonylphenol]	73.6	
CC(C)(c1ccc(O)cc1)c1ccc(O)cc1 [BPA, bisphenol A]		482
Oc1cc(Cl)ccc1Oc1ccc(Cl)cc1Cl [TCS, triclosan]	302	
C#C[C@]1(O)CC[C@H]2[C@@H]3CCc4cc(O)ccc4[C@H]3CC[C@@]21C [EE2, 17-α-ethynylestradiol]	32	
